Data reported in US9334246B2, “Substituted triazines for malaria treatment and chemoprophylaxis” (The United States of America, as represented by the …, priority 2013, dated 2016).

Tests used:
Type in all cases: cell-based, Plasmodium falciparum
P. falciparum C235 = test: Malaria SYBR Green Fluorescence Assay, C235 strain; conditions: for C235: SYBR Green Assay
P. falciparum W2 = test: Malaria SYBR Green Fluorescence Assay, W2 strain; conditions: for W2: SYBR Green Assay
P. falciparum D6 = test: Malaria SYBR Green Fluorescence Assay, D6 strain; conditions: for D6: SYBR Green Assay

| Compound | W2 (SYBR Green Assay IC50) (P. falciparum W2) [µg/mL] | W2 (P. falciparum W2) [ng/mL] | D6 (P. falciparum D6) [ng/mL] | also measured |
| --- | --- | --- | --- | --- |
| CCN1CCC(CNc2nc(-c3ccccc3[N+](=O)[O-])nc(C(Cl)(Cl)Cl)n2)CC1 [Cmpd 551] | 0.0356 | – | – | C235 (SYBR Green Assay IC50) (P. falciparum C235): 0.05653 µg/mL; D6 (SYBR Green Assay IC50) (P. falciparum D6): 0.07027 µg/mL |
| CS(=O)(=O)c1ccc(-c2nc(NCCc3ccccn3)nc(C(Cl)(Cl)Cl)n2)cc1 [Cmpd 180] | – | 478 | 819 | – |
| CCN1CCCC(Nc2nc(Cc3ccc(OC)cc3)nc(C(Cl)(Cl)Cl)n2)C1 (centres unmarked) [Cmpd 81] | – | 601 | 633 | C235 (P. falciparum C235): 992 ng/mL |
| COc1cc(OC)cc(-c2nc(NC3CC(C)(C)NC(C)(C)C3)nc(C(Cl)(Cl)Cl)n2)c1 [Cmpd 527] | 0.021 | – | – | C235 (SYBR Green Assay IC50) (P. falciparum C235): 0.024 µg/mL; D6 (SYBR Green Assay IC50) (P. falciparum D6): 0.026 µg/mL |
| CC(C)(C)c1ccc(-c2nc(NCCc3ccncc3)nc(C(Cl)(Cl)Cl)n2)cc1 [Cmpd 148] | – | 151 | 621 | C235 (P. falciparum C235): 671 ng/mL |
| COc1ccc(-c2nc(NCC3(N)CCOCC3)nc(C(Cl)(Cl)Cl)n2)cc1OC [Cmpd 319] | – | 10 | 16 | C235 (P. falciparum C235): 34 ng/mL |
| CCN(CC)CCNc1nc(-c2ccc(OC)cc2)nc(C(Cl)(Cl)Cl)n1 [Cmpd 268] | – | 259 | 309 | C235 (P. falciparum C235): 282 ng/mL |
| CC(C)(C)c1ccc(-c2nc(NCCc3cccnc3)nc(C(Cl)(Cl)Cl)n2)cc1 [Cmpd 175] | – | 54 | 110 | C235 (P. falciparum C235): 165 ng/mL |
| COc1cccc(-c2nc(NCCC3CCCN3C)nc(C(Cl)(Cl)Cl)n2)c1 (centres unmarked) [Cmpd 236] | – | 50 | 52 | C235 (P. falciparum C235): 60 ng/mL |
| Cc1ccc(-c2nc(N3CCCN(CCO)CC3)nc(C(Cl)(Cl)Cl)n2)cc1 [Cmpd 453] | 0.043 | – | – | C235 (SYBR Green Assay IC50) (P. falciparum C235): 0.112 µg/mL; D6 (SYBR Green Assay IC50) (P. falciparum D6): 0.173 µg/mL |
| COc1cccc(-c2nc(NCCc3ccncc3)nc(C(Cl)(Cl)Cl)n2)c1 [Cmpd 151] | – | 133 | 346 | C235 (P. falciparum C235): 549 ng/mL |
| CCC(N)(CC)CNc1nc(-c2ccc(F)cc2)nc(C(Cl)(Cl)Cl)n1 [Cmpd 359] | 0.051 | – | – | C235 (SYBR Green Assay IC50) (P. falciparum C235): 0.095 µg/mL; D6 (SYBR Green Assay IC50) (P. falciparum D6): 0.045 µg/mL |
| COc1ncccc1Nc1nc(-c2ccc(S(C)(=O)=O)cc2)nc(C(Cl)(Cl)Cl)n1 [Compound 651, COc1ncccc1Nc2nc(nc(n2)C(Cl)(Cl)Cl)c3ccc(cc3)S(═O)(═O)C] | 0.577 | – | – | D6 (SYBR Green Assay IC50) (P. falciparum D6): 0.76 µg/mL |
| COc1ccccc1-c1nc(NCc2ccncc2)nc(C(Cl)(Cl)Cl)n1 [Cmpd 135] | – | 461 | 765 | – |
| Clc1cc(Cl)cc(-c2nc(NCCc3cnccn3)nc(C(Cl)(Cl)Cl)n2)c1 [Cmpd 471] | 0.174 | – | – | – |
| Cc1ccc(-c2ccccc2-c2nc(N3CCCNCC3)nc(C(Cl)(Cl)Cl)n2)cc1 [Cmpd 263] | – | 960 | – | C235 (P. falciparum C235): 763 ng/mL |
| Clc1ccc(-c2nc(NCCc3cnccn3)nc(C(Cl)(Cl)Cl)n2)cc1Cl [Cmpd 470] | 0.07 | – | – | C235 (SYBR Green Assay IC50) (P. falciparum C235): 0.258 µg/mL |
| NC1(CNc2nc(-c3ccccc3)nc(C(Cl)(Cl)Cl)n2)CC1 [Compound 677, NC1(CNC2═NC(═NC(═N2)C2═CC═CC═C2)C(Cl)(Cl)Cl)CC1] | – | 527 | – | C235 (P. falciparum C235): 910 ng/mL |
| COc1ccc(-c2nc(NCc3cccnc3)nc(C(Cl)(Cl)Cl)n2)cc1 [Cmpd 156] | – | 560 | – | – |
| CN(CCc1ccccn1)c2nc(nc(n2)C(Cl)(Cl)Cl)c3ccc(cc3)C(C)(C)C [Compound 736] | – | 445.4 | – | – |
| COc1cccc(Cc2nc(NCCN3CCCC3)nc(C(Cl)(Cl)Cl)n2)c1 [Cmpd 82] | – | 805 | – | – |
| COc1ccc(-c2nc(NCCc3cnccn3)nc(C(Cl)(Cl)Cl)n2)c2ccccc12 [Cmpd 546] | 0.361 | – | – | C235 (SYBR Green Assay IC50) (P. falciparum C235): 0.701 µg/mL |
| COc1ccccc1Cc1nc(N2CCCN(C)CC2)nc(C(Cl)(Cl)Cl)n1 [Cmpd 289] | – | 311 | 810 | – |
| CN1CCCC1CCNc1nc(-c2ccc(N3CCCC3)cc2)nc(C(Cl)(Cl)Cl)n1 (centres unmarked) [Cmpd 370] | – | – | – | D6 (SYBR Green Assay IC50) (P. falciparum D6): 0.846 µg/mL |
| NC1(CNc2nc(-c3ccc(C(Cl)(Cl)Cl)cc3)nc(C(Cl)(Cl)Cl)n2)CC1 [Compound 679, NC1(CNC2═NC(═NC(═N2)C2═CC═C(C═C2)C(Cl)(Cl)Cl)C(Cl)(Cl)Cl)CC1] | – | 201 | 606 | – |
| NC1(CNc2nc(-c3cccc(C(F)(F)F)c3)nc(C(Cl)(Cl)Cl)n2)CCCCC1 [Compound 663, NC1(CNC2═NC(═NC(═N2)C2═CC(═CC═C2)C(F)(F)F)C(Cl)(Cl)Cl)CCCCC1] | – | 583 | 729 | – |

| Compound | W2 (SYBR Green Assay IC50) (P. falciparum W2) [µg/mL] | W2 (P. falciparum W2) [ng/mL] | D6 (P. falciparum D6) [ng/mL] | also measured |
| --- | --- | --- | --- | --- |
| Cc1ccc(-c2nc(N3CCN(CCO)CC3)nc(C(Cl)(Cl)Cl)n2)cc1 [Cmpd 416] | 0.381 | – | – | – |
| COc1ccc(-c2nc(NC3CCN(C)CC3)nc(C(Cl)(Cl)Cl)n2)cc1OC [Cmpd 399] | 0.705 | – | – | – |
| Cc1ccc(-c2nc(NCc3ccncc3)nc(C(Cl)(Cl)Cl)n2)cc1 [Cmpd 134] | – | 453 | 521 | – |
| ClC(Cl)(Cl)c1ccc(C(Cl)(Cl)Cl)cc1.FC(F)(F)c1cccc(-c2nc(NCCCN3CCCC3)nc(C(Cl)(Cl)Cl)n2)c1 [Cmpd 602] | 0.853 | – | – | – |
| CCN(CC)CCCC(C)Nc1nc(Nc2ccc(Cl)c(Cl)c2)nc(n1)C(Cl)(Cl)Cl [Compound 646] | 0.7354 | – | – | D6 (SYBR Green Assay IC50) (P. falciparum D6): 0.6727 µg/mL |
| CN(Cc1ccccc1c2cccnc2)c3nc(nc(n3)C(Cl)(Cl)Cl)c4ccc(cc4)C(Cl)(Cl)Cl [Compound 653] | – | 272.1 | – | – |
| Cc1ccc(-c2nc(N3CC4CC3CN4C(=O)OC(C)(C)C)nc(C(Cl)(Cl)Cl)n2)cc1 (centres unmarked) [Compound 711, Cc1ccc(cc1)c2nc(nc(n2)C(Cl)(Cl)Cl)N3CC4CC3CN4C(═O)OC(C)(C)C] | – | – | 812 | – |
| COc1ccc(-c2nc(NC3CCN(C)CC3)nc(C(Cl)(Cl)Cl)n2)cc1 [Cmpd 275] | – | 618 | – | C235 (P. falciparum C235): 699 ng/mL |
| COc1ccccc1-c1nc(NCCc2cccnc2)nc(C(Cl)(Cl)Cl)n1 [Cmpd 182] | – | 256 | 659 | – |
| CCN1CCC(CNc2nc(Nc3cccnc3OC)nc(C(Cl)(Cl)Cl)n2)CC1 [Cmpd 352] | 0.6372 | – | – | D6 (SYBR Green Assay IC50) (P. falciparum D6): 0.7908 µg/mL |
| COc1ccc(-c2nc(N3CCCN(C)CC3)nc(C(Cl)(Cl)Cl)n2)cc1OC [Cmpd 398] | 0.638 | – | – | – |
| CS(═O)(═O)c1ccc(cc1)c2nc(nc(n2)C(Cl)(Cl)Cl)N3CCC(CC3)C(═O)N [Compound 690] | – | 670 | – | – |
| CC(C)(C)c1ccc(-c2nc(N3CCOCC3)nc(C(Cl)(Cl)Cl)n2)cc1 [Compound 734, CC(C)(C)c1ccc(cc1)c2nc(nc(n2)C(Cl)(Cl)C1)N3CCOCC3] | – | 834 | – | – |
| CSc1ccc(-c2nc(NCCc3cnccn3)nc(C(Cl)(Cl)Cl)n2)cc1 [Cmpd 543] | 0.669 | – | – | – |
| CS(=O)(=O)c1ccc(-c2nc(NCc3ccncc3)nc(C(Cl)(Cl)Cl)n2)cc1 [Compound 650, CS(═O)(═O)c1ccc(cc1)c2nc(NCc3ccncc3)nc(n2)C(Cl)(Cl)Cl] | 0.803 | – | – | – |
| CC(C)(C)c1ccc(-c2nc(NCc3ccccn3)nc(C(Cl)(Cl)Cl)n2)cc1 [Cmpd 170] | – | 313 | – | – |
| OCCN1CCCN(c2nc(-c3ccc(N4CCCC4)cc3)nc(C(Cl)(Cl)Cl)n2)CC1 [Cmpd 465] | 0.222 | – | – | C235 (SYBR Green Assay IC50) (P. falciparum C235): 0.498 µg/mL |
| CC(C)(C)OC(=O)N1CC2CC1CN2c1nc(-c2ccc(Cl)c(Cl)c2)nc(C(Cl)(Cl)Cl)n1 (centres unmarked) [Compound 705, CC(C)(C)OC(═O)N1CC2CC1CN2c3nc(nc(n3)C(Cl)(Cl)Cl)c4ccc(Cl)c(Cl)c4] | – | 851.8 | – | – |
| ClC(Cl)(Cl)c1nc(NCc2cccnc2)nc(-c2ccc(-c3ccccc3)cc2)n1 [Cmpd 249] | – | 545 | – | C235 (P. falciparum C235): 755 ng/mL |
| ClC(Cl)(Cl)c1nc(NCc2ccccn2)nc(-c2ccc(-c3ccccc3)cc2)n1 [Cmpd 250] | – | 721 | – | C235 (P. falciparum C235): 858 ng/mL |
| CN1CCCC1CCNc1nc(-c2ccc(S(C)(=O)=O)cc2)nc(C(Cl)(Cl)Cl)n1 (centres unmarked) [Cmpd 75] | – | – | 635 | – |
| CN(C)C1CCC(Nc2nc(-c3ccc(C(Cl)(Cl)Cl)cc3)nc(C(Cl)(Cl)Cl)n2)CC1 (centres unmarked) [Cmpd 597] | 0.882 | – | – | – |
| COc1ccccc1-c1nc(NCc2cccnc2)nc(C(Cl)(Cl)Cl)n1 [Cmpd 154] | – | 477 | – | – |
| CC(C)(C)c1ccc(cc1)c2nc(nc(n2)C(Cl)(Cl)Cl)N3CCCN(CCO)CC3 [Compound 738] | – | 60.48 | – | C235 (P. falciparum C235): 239.9 ng/mL |
| CN1CCCC1CCNc1nc(-c2ccc(-c3ccccc3)cc2)nc(C(Cl)(Cl)Cl)n1 (centres unmarked) [Cmpd 201] | – | 845 | – | – |
